These results are taken from patent US7507716B2, “Method for treating pain with prolactin antagonists” (Board of Regents, The University of Texas System, priority 2005, dated 2009).

For assay [1], the system named is capsaicin-evoked nocifensive behavior. Put plainly: Eye-wipe test (corneal capsaicin). It is filed as in vivo, rat. As to the method:
To whether this effect has relevance to capsaicin-induced nociception in the whole animal, corneal wipe tests were performed. In this test, corneal application of capsaicin induces a brief nocifensive behavior in the trigeminal region of awake animals (Price et al., 2004; Neubert et al., 2005; Tender et al., 2005). The cornea is a specialized tissue innervated by trigeminal sensory neurons including TRPV1 positive C-fibers (Guo et al., 1999). Turning to FIG. 8A, the results of immunohistochemical analysis of corneal cryosections from proestrous females reveal the presence of fibers that stain positive for both PRL-R (green) and TRPV1 (red) (FIG. 8A).
In this test, the effect of PRL pretreatment on capsaicin-induced eye wiping in proestrous rats was examined. PRL (1 μg/ul in saline) or vehicle (40 μl) was applied in the cornea immediately followed by application of 0.01% capsaicin or vehicle (40 μl) and the total time spent grooming the injected eye per 5 min bins was measured by observers blinded to treatment allocation. Data are shown as mean±SEM (n=6/group *=p<0.05 and ***=p<0.001; two-way ANOVA). […] Data are shown as mean±SEM (n=6/group; two-way ANOVA). […] Data are shown as mean±SEM (n=6/group, **=p<0.01; two-way ANOVA). The effect of PRL on capsaicin-mediated nocifensive response was assessed next in male rats, in order to determine whether the influence of PRL-signaling on nociception is conserved between gender. Corneal wipe tests were performed on age-matched male rats essentially as described above. Data in FIG. 8E are shown as mean±SEM (n=6/group, **=p<0.01; two-way ANOVA). Unexpectedly, the capsaicin-mediated nocifensive response profile of male rats is strikingly similar to that of proestrus rats (compare FIG. 8E with FIG. 8B) and estradiol-treated OVX rats (compare FIG. 8E with FIG. 8D), and divergent from that found in control OVX rats treated with vehicle.
Eye-Wipe Test OVX female rats, treated with either vehicle or E2 (5μg/day/10 days), or intact female rats in the proestrous reproductive stage were brought to a quiet, temperature controlled (22-25° C.) behavioral laboratory in individual cages where they were allowed to acclimate for at least 2 h. PRL (1 μg/μl) or vehicle was placed directly onto the right eye in a volume of 40 ul followed by application of 0.01% (40 μl) capsaicin solution as described previously (Price et al. 2004). The resulting behavioral response was measured as time spent grooming or wiping the test eye. The observers were blinded to the treatments and the data were collected in 3 bins of 5 min.

For the next assay, the system named is PRL mRNA. Put plainly: Real-time RT-PCR of PRL mRNA in trigeminal ganglia. The assay is classed as in vivo, rat. An excerpt: The S.A.M. and GeneSpring 5.1 analyses identified 18 genes whose expression increased and 3 genes whose expression decreased. […] The expression profile of genes selected using the microarray screen was confirmed by real-time RT-PCR. Validated primers were used for each gene and expression was normalized to the housekeeping gene 18S. Data are presented as mean±SEM (n=5/group, **=p<0.01 and ***=p<0.001 versus respective vehicle control; two-tailed unpaired T test). […] For this reason, PRL was selected for further study as a candidate therapeutic target for female-biased pain disorders.
Reactions were performed using primers specific for PRL gene and the internal control (18S). Data were normalized to the relative amount of OVX (vehicle) PRL mRNA/18S. Data are presented as mean±SEM (n=5/group, **=p<0.01 and ***=p<0.001 vs. PRL mRNA of the OVX/Vehicle group; one-way ANOVA with Bonferroni's post hoc test). […] Moreover, the relative PRL mRNA expression in the TG of intact female rats during proestrous was 78-fold greater (p<0.001). The TG samples collected from these groups were also subjected to Western blot analysis to determine the relative expression of PRL protein. […] The results obtained from these experiments were quantified as described in the METHODS section. […] The specificity of anti-PRL antibodies was evaluated by a use of the blocking peptide corresponding to the epitope of PRL. Pre-absorption of anti-PRL antibodies with the blocking peptide nearly eliminated the PRL-specific band (FIGS. 2B, 2C).
RNA isolation: Harvested TG tissue from OVX (treated with vehicle or estradiol) or intact proestrous female rats were immediately frozen in liquid nitrogen and ground in a pre-chilled mortar. The ground tissue was used to isolate total RNA by the guanidinium thiocyanate method as described previously (Chomczynski and Sacchi, 1987). […] Additional RNA sample aliquots were used as template for the quantitative real time RT-PCR experiments.
Quantitative Real Time RT-PCR (qRT-PCR): Total RNA (100 ng) was used as template in a one-step RT-PCR protocol. […]

Turning to `C[C@]12CC[C@@H]3c4ccc(O)cc4CC[C@H]3[C@@H]1CC[C@@H]2O` [estradiol, 17-β-estradiol], the “PRL sensitization of capsaicin nocifensive behavior” value in assay [1] (OVX female rats treated with estradiol) is on record as “restores PRL sensitization of capsaicin nocifensive behavior”. The “PRL mRNA estradiol responsiveness in TG neurons” value in the assay with PRL mRNA (OVX rats undergoing estradiol replacement, summary statement) is above 40 fold. Besides, in the assay on PRL mRNA (OVX rats with estradiol replacement 80 μg/kg/day×10 days, normalized to 18S, FIG. 2A), the “increase in PRL mRNA expression in TG vs OVX control rats” value is recorded as “approximately 50 fold”. Besides, the “increase in PRL mRNA expression in response to estradiol” value in the assay on PRL mRNA (TG of OVX rats, 80 μg/kg/day for 10 days vs vehicle, normalized to 18S, FIG. 1) was 48 fold.

B1: PRL: Ovine PRL [oPRL-21, BIO] provided by NHPP; prolactin polypeptide hormone (protein, UniProt P01240 31-229, looked up)
Prolactin: TPVCPNGPGNCQVSLRDLFDRAVMVSHYIHNLSSEMFNEFDKRYAQGKGFITMALNSCHTSSLPTPEDKEQAQQTHHEVLMSLILGLLRSWNDPLYHLVTEVRGMKGVPDAILSRAIEIEEENKRLLEGMEMIFGQVIPGAKETEPYPVWSGLPSLQTKDEDARHSAFYNLLHCLRRDSSKIDTYLKLLNCRIIYNNNC
B1: the “capsaicin-responsiveness (eye wiping)” value in assay [1] (OVX female rats, PRL pretreatment) is “no change in capsaicin-responsiveness was observed”. Further, the capsaicin-mediated nocifensive response entry in assay [1] (age-matched male rats, PRL pretreatment) was “influences nociceptor sensitization in male rats”. The “capsaicin-mediated nocifensive behavior (eye wiping)” value in assay [1] (proestrous rats, PRL 1 μg/μl 40 μl on cornea, then 0.01% capsaicin) is recorded as “significantly increases capsaicin-mediated nocifensive behavior”.
